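Exposure lasted 48 hours, with cells grown in 96-well plates and compounds tested at five concentrations. GI50 = concentration required for 50% inhibition of growth. Definition used: TGI = concentration required for complete inhibition of growth.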
Experiments:
Experiment in all cases: NCI anticancer screen, dose series, 48 h
[1] = tested on: UO-31 renal
[2] = tested on: T-47D breast
[3] = tested on: UACC-257 melanoma
[4] = tested on: K-562 leukemia
[5] = tested on: ACHN renal
[6] = tested on: NCI-H522 lung
[7] = tested on: SNB-19 CNS
[8] = tested on: SK-OV-3 ovarian
[9] = tested on: PC-3 prostate
[10] = tested on: HOP-92 NSCLC

`CCCn1cnc2c(SCc3ccccc3Cl)nc(N)nc21` was tested, and the GI50 [1] was 10.8 µM, the TGI [1] was 63.5 µM and the GI50 [2] was 22 µM. It also gave a TGI [2] of 80.8 µM, a GI50 [3] of 27.8 µM and a TGI [3] of 93.8 µM. For the same compound, the GI50 [4] was 6.55 µM, the TGI [4] was > 100 µM and the GI50 [5] was 13.6 µM. It also gave a TGI [5] of 67.4 µM, a GI50 [6] of 19.4 µM and a TGI [6] of 71.1 µM. The GI50 [7] was 25.8 µM, the TGI [7] was > 100 µM and the GI50 [8] was 14.9 µM. For the same compound, the TGI [8] was > 100 µM, the GI50 [9] was 6.49 µM and the TGI [9] was 37.5 µM. The GI50 [10] was 1.44 µM and the TGI [10] was 23.9 µM.

With `O=C1CCCCN1CCCCC#Cc1ccccc1C#Cc1ccc([N+](=O)[O-])cc1` the GI50 [1] was 19.5 µM, the TGI [1] was 84.6 µM and the GI50 [2] was 3.52 µM. The TGI [2] was 18.7 µM, the GI50 [3] was 2.89 µM and the TGI [3] was 8.24 µM. For the same compound, the GI50 [4] was 3.6 µM, the TGI [4] was 22.3 µM and the GI50 [5] was 3.44 µM. The TGI [5] was 11.3 µM, the GI50 [6] was 12.3 µM and the TGI [6] was 59.5 µM. The GI50 [7] was 6.57 µM, the TGI [7] was 19.4 µM and the GI50 [8] was 1.57 µM. It also gave a TGI [8] of 6.47 µM, a GI50 [10] of 4.39 µM and a TGI [10] of 27.4 µM.

`COc1ccc(/C(COc2c(-c3ccccc3)oc3ccccc3c2=O)=N\O)cc1` was tested, and the GI50 [1] was 41.4 µM, the TGI [1] was > 50 µM and the GI50 [2] was 13.5 µM. The TGI [2] was 41.6 µM, the GI50 [3] was 17.8 µM and the TGI [3] was > 50 µM. The GI50 [4] was 18.9 µM, the TGI [4] was > 50 µM and the GI50 [5] was 10.6 µM. For the same compound, the TGI [5] was 26.3 µM, the GI50 [6] was 11.1 µM and the TGI [6] was 28.5 µM. For the same compound, the GI50 [7] was 17.5 µM, the TGI [7] was > 50 µM and the GI50 [8] was 16.9 µM. For the same compound, the TGI [8] was > 50 µM, the GI50 [9] was 13.4 µM and the TGI [9] was 35.5 µM. The GI50 [10] was > 50 µM and the TGI [10] was > 50 µM.

`Cc1ccc2c(c1)[n+]([O-])c(N)n[n+]2[O-]` was tested, and the TGI [1] was > 100 µM, the TGI [2] was > 100 µM and the TGI [3] was > 100 µM. The TGI [4] was > 100 µM, the TGI [5] was > 100 µM and the TGI [6] was > 100 µM. For the same compound, the TGI [7] was > 100 µM, the TGI [8] was > 100 µM and the TGI [9] was > 100 µM.

In the case of `CS(=O)(=O)c1ccc([C@H]2O[C@@H](CO)C[C@]2(O)c2ccc(S(C)(=O)=O)cc2)cc1`, the GI50 [1] was > 100 µM, the TGI [1] was > 100 µM and the GI50 [3] was > 100 µM. The TGI [3] was > 100 µM, the GI50 [4] was > 100 µM and the TGI [4] was > 100 µM. The GI50 [5] was > 100 µM, the TGI [5] was > 100 µM and the GI50 [6] was > 100 µM. For the same compound, the TGI [6] was > 100 µM, the GI50 [7] was > 100 µM and the TGI [7] was > 100 µM. The GI50 [8] was > 100 µM, the TGI [8] was > 100 µM and the GI50 [9] was > 100 µM. For the same compound, the TGI [9] was > 100 µM, the GI50 [10] was > 100 µM and the TGI [10] was > 100 µM.

`CC[C@]1(O)C[C@@H]2CN(CCc3c([nH]c4ccccc34)[C@@](C(=O)OC)(c3cc4c(cc3OC)N(C)[C@H]3[C@@](O)(C(=O)OC)[C@H](OC(C)=O)[C@]5(CC)C=CCN6CC[C@]43[C@@H]65)C2)C1` was tested, and the GI50 [1] was 0.175 µM, the TGI [1] was 19.1 µM and the GI50 [2] was 8.59 µM. The TGI [2] was > 100 µM, the GI50 [3] was 14.6 µM and the TGI [3] was 37.8 µM. For the same compound, the GI50 [4] was < 0.01 µM, the TGI [4] was 14.6 µM and the GI50 [5] was < 0.0324 µM. For the same compound, the TGI [5] was 73.9 µM, the GI50 [6] was < 0.01 µM and the GI50 [7] was < 0.01 µM. The TGI [7] was > 100 µM, the TGI [8] was 45 µM and the GI50 [9] was < 0.01 µM. For the same compound, the TGI [9] was 22.2 µM and the GI50 [10] was < 0.01 µM.

Work on `CC1(C)OC2[C@@H](CNC(=O)NC(=O)NC(=O)CI)O[C@@H](n3cnc4c(NC(=O)Nc5ccccc5)ncnc43)[C@H]2O1` (stereo partly drawn) yielded a GI50 [1] of 1.34 µM, a TGI [1] of 4.27 µM and a GI50 [2] of 9.64 µM. The TGI [2] was 21.5 µM, the GI50 [3] was 9.91 µM and the TGI [3] was 17.8 µM. The GI50 [4] was 2.3 µM, the TGI [4] was 10.5 µM and the GI50 [5] was 6.94 µM. It also gave a TGI [5] of 14.7 µM, a GI50 [6] of 0.742 µM and a TGI [6] of 1.5 µM. For the same compound, the GI50 [7] was 27.1 µM, the TGI [7] was > 50 µM and the GI50 [8] was 22.2 µM. For the same compound, the TGI [8] was > 50 µM, the GI50 [9] was 8 µM and the TGI [9] was 16.6 µM. For the same compound, the GI50 [10] was 1.4 µM and the TGI [10] was 4.23 µM.

`Oc1ccc2ccccc2c1N=Nc1nccs1` gave a GI50 [1] of 0.216 µM, a TGI [1] of 11.9 µM and a GI50 [2] of 1.71 µM. The TGI [2] was 12.6 µM, the GI50 [3] was 3.1 µM and the TGI [3] was 16.4 µM. The GI50 [4] was 0.438 µM, the TGI [4] was > 100 µM and the GI50 [5] was 0.27 µM. For the same compound, the TGI [5] was 14 µM, the GI50 [6] was 2.22 µM and the TGI [6] was 12.4 µM. The TGI [7] was > 100 µM, the GI50 [8] was 1.98 µM and the TGI [8] was 41.2 µM. For the same compound, the GI50 [9] was 1.13 µM, the TGI [9] was > 66.1 µM and the GI50 [10] was 0.389 µM. The TGI [10] was > 48.8 µM.

Compound `COc1ccc(NC2=CC(=O)C(=O)c3ccccc32)nn1` has a TGI [1] of 11.8 µM, a TGI [2] of 11.9 µM and a TGI [3] of 3.24 µM. The TGI [4] was 1.31 µM, the TGI [5] was 5.1 µM and the TGI [6] was 2.16 µM. For the same compound, the TGI [7] was 18.1 µM, the TGI [8] was 9.41 µM and the TGI [9] was 38.9 µM.

In the case of `Oc1ccc(NCc2nc3ccccc3[nH]2)cc1`, the GI50 [1] was > 100 µM, the TGI [1] was > 100 µM and the GI50 [2] was 31.2 µM. The TGI [2] was > 100 µM, the GI50 [3] was 88 µM and the TGI [3] was > 100 µM. The GI50 [5] was > 100 µM, the TGI [5] was > 100 µM and the GI50 [6] was 27.7 µM. For the same compound, the TGI [6] was > 100 µM, the GI50 [7] was 33.6 µM and the TGI [7] was > 100 µM. The GI50 [8] was 32.1 µM, the TGI [8] was > 100 µM and the GI50 [9] was 33.6 µM. For the same compound, the TGI [9] was > 100 µM, the GI50 [10] was 12.8 µM and the TGI [10] was 53 µM.

For `CC[CH2][Sn]([CH2]CC)([O]C(=O)c1cccnc1SC)[O][Sn]([CH2]CC)([CH2]CC)[O]C(=O)c1cccnc1SC`, the GI50 [1] was 0.844 µM, the TGI [1] was 2.14 µM and the GI50 [2] was 0.287 µM. The TGI [2] was 1.52 µM, the GI50 [3] was 0.594 µM and the TGI [3] was 1.72 µM. It also gave a GI50 [4] of 0.0756 µM, a TGI [4] of 4.32 µM and a GI50 [5] of 0.427 µM. For the same compound, the TGI [5] was 0.97 µM, the GI50 [6] was < 0.0196 µM and the TGI [6] was 0.0784 µM. For the same compound, the GI50 [7] was 0.83 µM, the TGI [7] was 2.22 µM and the GI50 [8] was 1.53 µM. It also gave a TGI [8] of 3.61 µM, a GI50 [9] of 2.3 µM and a TGI [9] of 6.48 µM. For the same compound, the GI50 [10] was 0.342 µM and the TGI [10] was 0.829 µM.

In the case of `O=C1c2cc(Cl)ccc2S(=O)(=O)c2c(NCCCNCCO)nc3ccccc3c21`, the GI50 [1] was 1.13 µM, the TGI [1] was 2.36 µM and the GI50 [2] was 1.24 µM. The TGI [2] was 2.96 µM, the GI50 [3] was 1.55 µM and the TGI [3] was 3.42 µM. It also gave a GI50 [5] of 0.493 µM, a TGI [5] of 1.63 µM and a GI50 [6] of 0.323 µM. For the same compound, the TGI [6] was 1.42 µM, the GI50 [7] was 3.77 µM and the TGI [7] was 14.4 µM. For the same compound, the GI50 [8] was 8.54 µM, the TGI [8] was 20.9 µM and the GI50 [9] was 1.53 µM. For the same compound, the TGI [9] was 3.66 µM, the GI50 [10] was 1.01 µM and the TGI [10] was 2.44 µM.

With `COc1ccc(-c2cnnc3c(-c4cccc(C(F)(F)F)c4)cnn23)cc1` the GI50 [2] was 6.37 µM, the TGI [2] was > 100 µM and the GI50 [3] was 6.44 µM. For the same compound, the TGI [3] was > 100 µM, the GI50 [4] was > 100 µM and the TGI [4] was > 100 µM. The GI50 [5] was 3.52 µM, the TGI [5] was > 100 µM and the GI50 [6] was 3.66 µM. The TGI [6] was > 100 µM, the GI50 [7] was 2.45 µM and the TGI [7] was 7.44 µM. The GI50 [8] was 3.5 µM, the TGI [8] was > 100 µM and the GI50 [9] was 6.22 µM. For the same compound, the TGI [9] was > 100 µM and the TGI [10] was 2.85 µM.

From PubChem BioAssay (NCI)
